According to patent publication US20060240048A1 (priority 2002, published 2006):

Target: T1, human cannabinoid CB2 receptor (Homo sapiens, UniProt P34972)
T1 construct: expressed in transfected cells; host or cells: Saccharomyces cerevisiae strain MMY23
Assay: Cannabinoid CB2 receptor agonist activity, yeast reporter assay (FDGlu fluorescence);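 on Emax: 100% equals maximal response of reference agonist HU210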
Format: cell-based
Conditions: for Emax: read-out: efficacy value (Emax) at the cloned human cannabinoid CB2 receptor
Description: The cannabinoid CB2 receptor agonist activity of the compounds of formula (I) was determined in accordance with the following experimental method.
Yeast (Saccharomyces cerevisiae) cells expressing the human cannabinoid CB2 receptor were generated by integration of an expression cassette into the ura3 chromosomal locus of yeast strain MMY23. This cassette consisted of DNA sequence encoding the human CB2 receptor flanked by the yeast GPD promoter to the 5′ end of CB2 and a yeast transcriptional terminator sequence to the 3′ end of CB2. MMY23 expresses a yeast/mammalian chimeric G-protein alpha subunit in which the C-terminal 5 amino acids of Gpa1 are replaced with the C-terminal 5 amino acids of human Gαi3 (as described in Brown et al. (2000), Yeast 16:11-22). Cells were grown at 30° C. in liquid Synthetic Complete (SC) yeast media (Guthrie and Fink (1991), Methods in Enzymology, Vol. 194) lacking uracil, tryptophan, adenine and leucine to late logarithmic phase (approximately 6 OD600/ml).
Agonists were prepared as 10 mM stocks in DMSO. […] Agonist solutions in DMSO (1% final assay volume) were transferred into black, clear bottom, microtitre plates from NUNC (96- or 384-well). […] This mixture (50 ul per well for 384-well plates, 200 ul per well for 96-well plates) was added to agonist in the assay plates (Multidrop 384, Labsystems). After incubation at 30° C. for 24 hours, fluorescence resulting from degradation of FDGlu to fluorescein due to exoglucanase, an endogenous yeast enzyme produced during agonist-stimulated cell growth, was determined using a Spectrofluor microtitre plate reader (Tecan; excitation wavelength: 485 nm; emission wavelength: 535 nm). Fluorescence was plotted against compound concentration and iteratively curve fitted using a four parameter fit to generate a concentration effect value.
where Max[compound X] and Min[compound X] are the fitted maximum and minimum respectively from the concentration effect curve for compound X, and Max[HU210] and Min[HU210] are the fitted maximum and minimum respectively from the concentration effect curve for (6aR,10aR)-3-(1,1′-Dimethylheptyl)-6a,7,10,10a-tetrahydro-1-hydroxy-6,6-dimethyl-6H-dibenzo[b,d]pyran-9-methanol (HU210; available from Tocris). Equieffective molar ratio (EMR) values were calculated from the equation EMR=EC50 [compound X]/EC50 [HU210]
Where EC50 [compound X] is the EC50 of compound X and EC50 [HU210] is the EC50 of HU210.

T1 sequence (P34972 whole entry): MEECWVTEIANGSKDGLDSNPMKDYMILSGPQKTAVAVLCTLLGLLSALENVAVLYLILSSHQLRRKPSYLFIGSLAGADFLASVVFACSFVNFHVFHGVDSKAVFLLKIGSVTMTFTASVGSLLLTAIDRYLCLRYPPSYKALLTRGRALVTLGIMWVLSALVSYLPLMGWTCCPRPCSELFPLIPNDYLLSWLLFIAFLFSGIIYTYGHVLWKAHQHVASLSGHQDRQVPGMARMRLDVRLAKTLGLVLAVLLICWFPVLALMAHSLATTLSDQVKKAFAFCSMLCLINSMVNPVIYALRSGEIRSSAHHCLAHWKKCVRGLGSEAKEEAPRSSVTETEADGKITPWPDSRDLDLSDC

SMILES | EC50 [nM] | Emax [%]
Cc1cc(C#N)ccc1Nc1cc(C(C)C)c(C(=O)NCC2CCCC2)cn1 [Example 93, 6-(4-Cyano-2-methyl-phenylamino)-N-cyclopentylmethyl-4-isopropyl-nicotinamide] | < 300 | > 50
CC(C)c1cc(Nc2ccc(C#N)c(C(F)(F)F)c2)ncc1C(=O)NCC1CCOCC1 [Example 96, 6-(4-Cyano-3-trifluoromethyl-phenylamino)-4-isopropyl-N-(tetrahydro-pyran-4-ylmethyl)-nicotinamide] |  | > 50
CC(C)c1cc(Nc2ccc(C#N)cc2F)ncc1C(=O)NCC1CCOCC1 [Example 97, 6-(4-Cyano-2-fluoro-phenylamino)-4-isopropyl-N-(tetrahydro-pyran-4-ylmethyl)-nicotinamide] |  | > 50
O=C(NC1CCC1)c1cnc(Nc2cccc(Cl)c2Cl)cc1C(F)(F)F [Example 104, 6-(2,3-Dichloro-phenylamino)-N-(cyclobutyl)-4-trifluoromethyl-nicotinamide] | < 300 | > 50
O=C(NCC1CCOCC1)c1cnc(Nc2ccc(Cl)cc2Cl)cc1C(F)(F)F [Example 105, 6-(2,4-Dichloro-phenylamino)-N-(tetrahydropyran-4-ylmethyl)-4-trifluoromethyl-nicotinamide] |  | > 50
O=C(NCC1CCS(=O)(=O)C1)c1cnc(Nc2cccc(Cl)c2)cc1C(F)(F)F (centres unmarked) [Example 106, 6-(3-Chloro-phenylamino)-N-(1,1-dioxo-tetrahydrothiophen-3-ylmethyl)-4-trifluoromethyl-nicotinamide] | < 300 | > 50
O=C(NCC1CCCCC1)c1cnc(Nc2ccccc2)cc1C(F)(F)F [Example 107, N-Cyclohexylmethyl-6-phenylamino-4-trifluoro-methyl-nicotinamide] | < 300 | > 50
O=C(NCC1CCCC1)c1cnc(Nc2ccccc2)cc1C(F)(F)F [Example 108, N-Cyclopentylmethyl-6-phenylamino-4-trifluoro-methyl-nicotinamide] | < 300 | > 50
O=C(NCC1CCC1)c1cnc(Nc2ccccc2)cc1C(F)(F)F [Example 109, N-Cyclobutylmethyl-6-phenylamino-4-trifluoro-methyl-nicotinamide] | < 300 | > 50
O=C(NC1CCC1)c1cnc(Nc2cccc(Cl)c2)cc1C(F)(F)F [Example 110, N-Cyclobutyl-6-(3-chloro-phenylamino)-4-trifluoro-methyl-nicotinamide] | < 300 | > 50
O=C(NCC1CCOCC1)c1cnc(Nc2cccc(Cl)c2)cc1C(F)(F)F [Example 111, N-(Tetrahydropyran-4-yl-methyl)-6-(3-chlorophenyl-amino)-4-trifluoromethyl-nicotinamide] |  | > 50
O=C(NCC1CCC1)c1cnc(Nc2cccc(Cl)c2)cc1C(F)(F)F [Example 112, N-Cyclobutylmethyl-6-(3-chlorophenylamino)-4-tri-fluoromethyl-nicotinamide] | < 300 | > 50
CC(C)CNC(=O)c1cnc(Nc2cccc(Cl)c2)cc1C(F)(F)F [Example 113, N-Isobutyl-6-(3-chloro-phenylamino)-4-trifluoro-methyl-nicotinainide] | < 300 | > 50
O=C(NCC1CCCC1)c1cnc(Nc2cccc(Cl)c2)cc1C(F)(F)F [Example 114, N-Cyclopentylmethyl-6-(3-chlorophenylamino)-4-tri-fluoromethyl-nicotinamide] | < 300 | > 50
O=C(NCC1CC1)c1cnc(Nc2cccc(Cl)c2)cc1C(F)(F)F [Example 115, N-Cyclopropylmethyl-6-(3-chlorophenylamino)-4-tri-fluoromethyl-nicotinamide] | < 300 | > 50
O=C(NCC1CCCCC1)c1cnc(Nc2cccc(Br)c2)cc1C(F)(F)F [Example 116, N-Cyclohexylmethyl-6-(3-bromophenylamino)-4-tri-fluoromethyl-nicotinamide] | < 300 | > 50
O=C(NCC1CCCCCC1)c1cnc(Nc2cccc(Br)c2)cc1C(F)(F)F [Example 117, N-Cycloheptylmethyl-6-(3-bromophenylamino)-4-tri-fluoromethyl-nicotinamide] | < 300 | > 50

SMILES | EC50 [nM] | Emax [%]
O=C(NCC1CCOCC1)c1cnc(Nc2cccc(Br)c2)cc1C(F)(F)F [Example 118, N-(Tetrahydropyran-4-yl-methyl)-6-(3-bromophenyl-amino)-4-trifluoromethyl-nicotinamide] | < 300 | > 50
O=C(NC1CCC1)c1cnc(Nc2cccc(Br)c2)cc1C(F)(F)F [Example 119, N-Cyclobutyl-6-(3-bromo-phenylamino)-4-trifluoro-methyl-nicotinamide] | < 300 | > 50
O=C(NCC1CCC1)c1cnc(Nc2cccc(Br)c2)cc1C(F)(F)F [Example 120, N-Cyclobutylmethyl-6-(3-bromo-phenylamino)-4-tri-fluoromethyl-nicotinamide] | < 300 | > 50
O=C(NCC1CCCC1)c1cnc(Nc2cccc(Br)c2)cc1C(F)(F)F [Example 122, N-Cyclopentylmethyl-6-(3-bromo-phenylamino)-4-tri-fluoromethyl-nicotinamide] | < 300 | > 50
O=C(NCC1CC1)c1cnc(Nc2cccc(Br)c2)cc1C(F)(F)F [Example 123, N-Cyclopropylmethyl-6-(3-bromo-phenylamino)-4-tri-fluoromethyl-nicotinamide] | < 300 | > 50
O=C(NCC1CCC1)c1cnc(Nc2ccccc2F)cc1C(F)(F)F [Example 124, N-Cyclobutylmethyl-6-(2-fluoro-phenylamino)-4-tri-fluoromethyl-nicotinamide] | < 300 | > 50
O=C(NCC1CCCCCC1)c1cnc(Nc2cccc(F)c2)cc1C(F)(F)F [Example 125, N-Cycloheptylmethyl-6-(3-fluoro-phenylamino)-4-tri-fluoromethyl-nicotinamide] | < 300 | > 50
O=C(NC1CCC1)c1cnc(Nc2cccc(F)c2)cc1C(F)(F)F [Example 127, N-Cyclobutyl-6-(3-fluoro-phenylamino)-4-trifluoro-methyl-nicotinamide] | < 300 | > 50
O=C(NCC1CCCCC1)c1cnc(Nc2cccc(F)c2)cc1C(F)(F)F [Example 128, N-Cyclohexylmethyl-6-(3-fluoro-phenylamino)-4-tri-fluoromethyl-nicotinamide] | < 300 | > 50
O=C(NCC1CCC1)c1cnc(Nc2cccc(F)c2)cc1C(F)(F)F [Example 129, N-Cyclobutylmethyl-6-(3-fluoro-phenylamino)-4-tri-fluoromethyl-nicotinamide] | < 300 | > 50
O=C(NCC1CCCC1)c1cnc(Nc2cccc(F)c2)cc1C(F)(F)F [Example 130, N-Cyclopentylmethyl-6-(3-fluoro-phenylamino)-4-tri-fluoromethyl-nicotinamide] | < 300 | > 50
CC(C)CNC(=O)c1cnc(Nc2cccc(F)c2)cc1C(F)(F)F [Example 131, N-Isobutyl-6-(3-fluoro-phenylamino)-4-trifluoro-methyl-nicotinamide] | < 300 | > 50
O=C(NCC1CC1)c1cnc(Nc2cccc(F)c2)cc1C(F)(F)F [Example 132, N-Cyclopropylmethyl-6-(3-fluoro-phenylamino)-4-tri-fluoromethyl-nicotinamide] | < 300 | > 50
O=C(NCC1CCS(=O)(=O)C1)c1cnc(Nc2cccc(F)c2)cc1C(F)(F)F (centres unmarked) [Example 133, N-(1,1-Dioxo-tetrahydro-thiophen-3-ylmethyl)-6-(3-fluoro-phenylamino)-4-trifluoromethyl-nicotinamide] | < 300 | > 50
O=C(NCC1CCC1)c1cnc(Nc2ccc(F)cc2)cc1C(F)(F)F [Example 134, N-Cyclobutylmethyl-6-(4-fluoro-phenylamino)-4-trifluoromethyl-nicotinamide] | < 300 | > 50
O=C(NCC1CCOCC1)c1cnc(Nc2cccc(Cl)c2Cl)cc1C(F)(F)F [Example 135, N-(Tetrahydropyran-4-yl-methyl)-6-(2,3-dichloro-phenylamino)-4-trifluoro-methyl-nicotinanhide] | < 300 | > 50
